According to PubChem BioAssay (NCI):
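Cultured in 96-well plates, cells were exposed to test compound for 48 hours across five concentrations. Definition used: TGI = concentration required for complete inhibition of growth.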

Experiments:
Experiment in all cases: DTP human tumour cell line panel, 48 h
[1] = system: 786-0 renal
[2] = system: A498 renal
[3] = system: A549 NSCLC
[4] = system: ACHN renal
[5] = system: CAKI-1 renal
[6] = system: CCRF-CEM leukemia
[7] = system: COLO 205 colon
[8] = system: DLD-1 colon
[9] = system: DMS 114 small cell lung
[10] = system: DMS 273 small cell lung
[11] = system: EKVX NSCLC
[12] = system: HCC-2998 colon
[13] = system: HCT-116 colon
[14] = system: HCT-15 colon
[15] = system: HL-60(TB) leukemia
[16] = system: HOP-18 NSCLC
[17] = system: HOP-62 NSCLC
[18] = system: HOP-92 NSCLC
[19] = system: HT29 colon
[20] = system: IGROV1 ovarian
[21] = system: K-562 leukemia
[22] = system: KM20L2 colon
[23] = system: LOX IMVI melanoma
[24] = system: LXFL 529 NSCLC
[25] = system: M14 melanoma
[26] = system: M19-MEL melanoma
[27] = system: MALME-3M melanoma
[28] = system: NCI-H226 lung
[29] = system: NCI-H23 lung
[30] = system: NCI-H460 lung
[31] = system: NCI-H522 lung
[32] = system: OVCAR-3 ovarian
[33] = system: OVCAR-4 ovarian
[34] = system: OVCAR-5 ovarian
[35] = system: OVCAR-8 ovarian
[36] = system: RXF 393 renal
[37] = system: RXF-631 renal
[38] = system: SF-268 CNS
[39] = system: SF-295 CNS
[40] = system: SK-MEL-2 melanoma
[41] = system: SK-MEL-28 melanoma
[42] = system: SK-MEL-5 melanoma
[43] = system: SK-OV-3 ovarian
[44] = system: SN12C renal
[45] = system: SNB-19 CNS
[46] = system: SNB-75 CNS
[47] = system: SNB-78 CNS
[48] = system: SW-620 colon
[49] = system: TK-10 renal
[50] = system: U251 CNS
[51] = system: UACC-257 melanoma
[52] = system: UACC-62 melanoma
[53] = system: UO-31 renal
[54] = system: KM12 colon
[55] = system: MOLT-4 leukemia
[56] = system: RPMI-8226 leukemia
[57] = system: SF-539 CNS
[58] = system: SR leukemia
[59] = system: XF 498 CNS

## NC(=O)NNC(=O)CCn1[nH]c(=O)c(Cl)c(Cl)c1=O
[1]
  TGI: > 100 µM
[2]
  TGI: > 100 µM
[3]
  TGI: > 100 µM
[4]
  TGI: > 100 µM
[5]
  TGI: > 100 µM
[6]
  TGI: > 100 µM
[7]
  TGI: > 100 µM
[8]
  TGI: > 100 µM
[9]
  TGI: > 100 µM
[10]
  TGI: > 100 µM
[11]
  TGI: > 100 µM
[12]
  TGI: > 100 µM
[13]
  TGI: > 100 µM
[14]
  TGI: > 100 µM
[15]
  TGI: > 100 µM
[16]
  TGI: > 100 µM
[17]
  TGI: > 100 µM
[18]
  TGI: > 100 µM
[19]
  TGI: > 100 µM
[20]
  TGI: > 100 µM
[21]
  TGI: > 100 µM
[22]
  TGI: > 100 µM
[23]
  TGI: > 100 µM
[24]
  TGI: > 100 µM
[25]
  TGI: > 100 µM
[26]
  TGI: > 100 µM
[27]
  TGI: > 100 µM
[28]
  TGI: > 100 µM
[29]
  TGI: > 100 µM
[30]
  TGI: > 100 µM
[31]
  TGI: > 100 µM
[32]
  TGI: > 100 µM
[33]
  TGI: > 100 µM
[34]
  TGI: > 100 µM
[35]
  TGI: > 100 µM
[36]
  TGI: > 100 µM
[37]
  TGI: > 100 µM
[38]
  TGI: > 100 µM
[39]
  TGI: > 100 µM
[40]
  TGI: > 100 µM
[41]
  TGI: > 100 µM
[42]
  TGI: > 100 µM
[43]
  TGI: > 100 µM
[44]
  TGI: > 100 µM
[45]
  TGI: > 100 µM
[46]
  TGI: > 100 µM
[47]
  TGI: > 100 µM
[48]
  TGI: > 100 µM
[49]
  TGI: > 100 µM
[50]
  TGI: > 100 µM
[51]
  TGI: > 100 µM
[52]
  TGI: > 100 µM
[53]
  TGI: > 100 µM

## NCCSSCc1ccccc1CSSCCN
[1]
  TGI: > 100 µM
[2]
  TGI: > 100 µM
[3]
  TGI: > 100 µM
[4]
  TGI: > 100 µM
[5]
  TGI: > 100 µM
[7]
  TGI: > 100 µM
[8]
  TGI: > 100 µM
[9]
  TGI: > 100 µM
[10]
  TGI: > 100 µM
[11]
  TGI: > 100 µM
[12]
  TGI: > 100 µM
[13]
  TGI: > 100 µM
[14]
  TGI: > 100 µM
[15]
  TGI: 29.6 µM
[16]
  TGI: > 100 µM
[17]
  TGI: > 100 µM
[18]
  TGI: > 100 µM
[19]
  TGI: > 100 µM
[20]
  TGI: > 100 µM
[21]
  TGI: 43.4 µM
[54]
  TGI: > 100 µM
[22]
  TGI: > 100 µM
[23]
  TGI: 41.8 µM
[24]
  TGI: > 100 µM
[25]
  TGI: > 100 µM
[26]
  TGI: > 100 µM
[27]
  TGI: > 100 µM
[55]
  TGI: > 100 µM
[28]
  TGI: > 100 µM
[29]
  TGI: > 100 µM
[30]
  TGI: > 100 µM
[31]
  TGI: 27.8 µM
[32]
  TGI: > 100 µM
[33]
  TGI: > 100 µM
[34]
  TGI: > 100 µM
[35]
  TGI: > 100 µM
[56]
  TGI: > 100 µM
[36]
  TGI: > 100 µM
[37]
  TGI: > 100 µM
[38]
  TGI: > 100 µM
[39]
  TGI: > 100 µM
[57]
  TGI: > 100 µM
[41]
  TGI: > 100 µM
[42]
  TGI: > 100 µM
[43]
  TGI: > 100 µM
[44]
  TGI: > 100 µM
[45]
  TGI: > 100 µM
[46]
  TGI: > 100 µM
[47]
  TGI: > 100 µM
[58]
  TGI: > 100 µM
[48]
  TGI: 45.8 µM
[49]
  TGI: > 100 µM
[50]
  TGI: > 100 µM
[51]
  TGI: > 100 µM
[52]
  TGI: > 100 µM
[53]
  TGI: > 100 µM
[59]
  TGI: > 100 µM
